Assay results as given in patent US20250058002A1, “ELECTROCHEMICAL INHIBITION OF REDOX ACTIVE BACTERIA AND RELATED DEVICES, METHODS AND SYSTEMS” (priority 2023, published 2025).
Where two headings read alike, the source gives them in different places.

Key:
[1] = oxidized form; literature values (footnotes a, c, d); cited from earlier work
PA14 [2] = assay: Redox cycles over 7 days and support of survival (Table 4); type: cell-based, P. aeruginosa
From the text: (§1) Phenazines and other redox active compound in the sense of the disclosure can be further characterized by various electrical properties such as a standard electrode potential E° vs. NHE of −500 mV to 500 mV and other properties such as number of redox cycle over a certain period of time (e.g. number of days) as ability to support survival and susceptibility to reduction by enzymes and/or bacterial strains.

PA14 [3] = assay: Reduction of redox-active compound by PA14 (Table 4); type: cell-based, P. aeruginosa
From the text: as §1

[4] = Midpoint potential E1/2 by voltammetry vs Ag/AgCl (3M KCl); type: physicochemical; details: for E1/2 (vs. Ag/AgCl (3M KCl))/mV: Example 15 table
Protocol: The purified redox-active molecule can be dissolved in aqueous solution at appropriate concentration in the presence of supporting electrolyte and buffer to select the pH of measurement. For example, the redox-active molecule can be dissolved in 10 μM-10 mM concentrations in distilled, deionized water (DDW). The supporting electrolyte can be a salt such as NaCl or KCl at 0.01-0.5 M concentrations, for example, dissolved in DDW. The buffer can be 10 mM ammonium acetate/3-(N-morpholino)propanesulfonic acid at pH 7, or phosphate-buffered saline (PBS) at pH 7.4, or sodium acetate buffer at pH 5, or di-sodium hydrogen phosphate/potassium dihydrogen phosphate at pH 9, or boric acid/citric acid/trisodium phosphate for a wide range of pH values, for example.
Voltammetric methods are then used to characterize the electrochemical behavior of the redox-active molecule in such solution, with a potentiostat such as a Gamry PC4-300, using a three-electrode setup with working electrode (glassy carbon, or platinum, or gold), counter electrode (platinum wire) and reference electrode (Ag/AgCl (3M KCl), or SCE, or NHE; values are reported relative to Ag/AgCl (3M KCl) which has potential +197 mV vs. NHE at 298K).
For example, cyclic voltammetry may be used. In a cyclic voltammetry experiment phenazines will show a peak on the cathodic sweep (denoted Epc) corresponding to the reduction of the redox molecule.
The reverse, anodic sweep will show a peak (denoted Epa) corresponding to the re-oxidation of the redox molecule. If the electrode reaction is diffusion-controlled and reversible, the cathodic and anodic peak currents will be equal in area, and the mid-point between these peaks may be taken as the formal reduction potential of the redox molecule under the experimental conditions used. This value can interchangeably be referred to as the “midpoint potential” or “mid-peak potential”, denoted E1/2.
PYO was purified from aerobic bacterial cultures and was dissolved in 0.1 M KCl aqueous solution buffered with 10 mM ammonium acetate-3-(N-morpholino)propanesulfonic acid (5 mM each, pH 7) to yield a stock solution concentration of 829 μM PYO. Electrochemical measurements were performed with a Gamry PC4-300 potentiostat. A stationary gold disk electrode (BASi) was used as the working electrode, an Ag/AgCl electrode (RE-51, BASi) as the reference, and a straight platinum wire (BASi) was the counter electrode. Scans were performed between 20 and 500 mV/s in the potential range of around E1/2 (+/−300 mV), at 298 K.
As described in en.wikipedia.org/wiki/Nernst_equation, the Nernst equation relates E1/2 measured at pH 7 to the E1/2 at a different pH by:
[formula] • where E1/2 is in V • h is the number of protons transferred in the electrochemical reaction • e is the number of electrons transferred in the electrochemical reaction

Δphz* biofilms = assay: Anoxic survival (CFU) of electrode-attached phenazine-deficient biofilms at poised potential; type: cell-based, P. aeruginosa UCBPP-PA14; Δphz*; details: 10 μM PYO added, PYO-reductive conditions
Protocol: Electrochemical reactors and biofilm growth. Double-jacketed electrochemical reactors (Pine Instruments, 250 ml, wide center port 29/26) were used with ITO-coated 0.2 mm thick boro-aluminosilicate glass slides (Delta Technologies, 24×60 mm, Rs=7-10Ω) as working electrodes, freshly sanded graphite rods (Alfa Aesar) as counter electrodes, and Ag/AgCl in 3M KCl reference electrodes (BASi). Silver epoxy (Electron Microscopy Sciences) was used to make electrical connection between insulated wire ([…]) and working electrode and was insulated using 5 Minute® expoxy (Devcon). Working electrodes were assembled within 5 hours of use. Reactors were sterilized by autoclaving without reference or working electrodes, which were sterilized by submerging in 10% bleach for 5 minutes or 30 seconds, respectively, and rinsed in sterile water. Individual mid-log liquid cultures (OD600 0.45-0.55) were used to inoculate sterile reactors containing 140 ml of MM (described above) with 0.1% (vol/vol) for each biological replicate. Antibiotics were not added at this point. Working electrodes were poised at either open circuit, +100 mV, or −400 mV vs. Ag/AgCl (+310 mV and −190 mV vs the standard hydrogen electrode, respectively). Reactors were aerated using an aquarium pump with a 0.2 μm filter (Thermo Scientific) and heated to 31° C. using a circulating water bath (Haake A 25, Thermo Scientific). Fresh medium was exchanged every 24 hours for 5 days. After 5 days of aerobic growth, working electrode-attached biofilms were rinsed in sterile medium to remove planktonic cells and transferred to sterile reactors with fresh MM previously flushed for 2 hours with N2 ultra-high purity gas (NRL supply store). For antibiotic exposure experiments, antibiotics were added to sterile media before flushing with N2. […]
Biofilm harvesting and processing. […] SYTO-60 was excited with a 561 nm; 0.20% laser and emission was recorded from 580-700 nm. TOTO-1 was excited with a 488 nm; 0.20% laser and emission was recorded from 490 to 580 nm.

[5] = Square wave voltammograms of electrode-attached biofilms; type: physicochemical; details: acquired immediately after transfer to anoxic reactors
Protocol: FIG. 3: Electrochemical signal of wild type, Δphz*, and Δphz*+10 μM PYO showing PYO (E1/2=−250 mV vs Ag/AgCl) is the only redox active signal observed under these conditions and is retained by wild type biofilms. Square wave voltammograms acquired immediately after transfer to anoxic reactors.
Square Wave Voltammograms. Potential was scanned from +100 mV to −500 mV vs Ag/AgCl and in reverse with the following parameters: pulse height=50 mV, pulse width=66.6 ms, step height=−0.5 mV, and acquisition of the average current over the last 50% of each step. Square wave voltammograms were acquired immediately after transfer from oxic to anoxic conditions.

[6] = vs NHE at pH7; cited from earlier work
[7] = from Wang and Newman (2008), cited from earlier work
[8] = tested on: P. aeruginosa PA14 liquid cultures; assay: Toxicity of reduced PYO to liquid-grown cells under anoxic conditions; type: cell-based; details: 1, 10, and 100 μM reduced PYO, 30 minutes, normalized to untreated
Protocol: FIG. 8: Toxicity of reduced PYO to liquid-grown cells. Exposure of mid-log aerobic P. aeruginosa PA14 liquid cultures to 1, 10, and 100 μM reduced PYO under anoxic conditions. Triplicate data shown normalized to untreated samples with line at mean.
Treatment of liquid cultures with reduced PYO. 100 μM PYO in MM was reduced electrochemically using a dual-chamber reactor with an cation exchange membrane (CMI-7000, Membranes International) to avoid re-oxidation of PYO at the counter electrode. […] chamber contained Ag/AgCl reference electrode, platinum mesh working electrode, and was flushed with N2; while […] chamber was oxic and contained platinum mesh counter electrode. PYO reduction was carried out by poising the working electrode at −400 mV vs. Ag/AgCl for 24 hours, past the point of 100% PYO reduction based on coulombic efficiency, and biochemical reactor was then transferred into the anaerobic chamber. Anoxic vials with pre-equilibrated MM and corresponding concentrations of reduced PYO were then treated with biochemical O2 scavenging system (10 mM glucose+375 nM glucose oxidase+750 nM catalase) for an hour before inoculation. Aerobic liquid cultures of P. aerughnosa in MM at mid-log (OD600=0.5) were spun down and resuspended in fresh media and used to inoculate assays with 10% (vol/vol). […]

SMILES: Cn1c2cccc(=O)c-2nc2ccccc21 [Pyocyanin (PYO), Pyocyanin]
- E0' (vs. NHE) (mV) [1]: −40^a mV
- Support survival? (PA14 [2]): Yes
- # of Redox cycles over 7 days (PA14 [2]; over 7 days): 31
- Reduction by PA14? (PA14 [3]): Yes
- E1/2 (vs. Ag/AgCl (3M KCl))/mV ([4]; pH 5): −128 mV
- E1/2 estimated vs. Ag/AgCl (3M KCl) ([4]; pH 6, estimated): −178 mV
- E1/2 (vs. Ag/AgCl (3M KCl))/mV ([4]; pH 6): −189 mV
- E1/2 vs. Ag/AgCl (3M KCl) ([4]; pH 7, 298 K, 0.1 M KCl, gold disk working electrode): −237 mV
- E1/2 vs. NHE ([4]; pH 7, 298 K, corrected to NHE by adding 197 mV): −40 mV
- E1/2 (vs. Ag/AgCl (3M KCl))/mV ([4]; pH 7): −237 mV
- E1/2 estimated by Nernst equation ([4]; pH 8, estimated from pH 7 value): −296 mV
- E1/2 (vs. Ag/AgCl (3M KCl))/mV ([4]; pH 8): −300 mV
- effect of PYO addition on Δphz* biofilm CFUs (in words) (Δphz* biofilms; listed as PYO): sensitized under PYO-reductive conditions
- effect of PYO addition on Δphz* biofilm CFUs (in words) (Δphz* biofilms; listed as pyocyanin): re-sensitized
- E1/2 vs Ag/AgCl in biofilm square wave voltammograms [5]: −250 mV
- Redox potentials E (mV) [6]: −34 mV
- E1/2 (vs. Ag/AgCl (3M KCl))/mV ([7]; pH 5): −128 mV
- E1/2 (vs. Ag/AgCl (3M KCl))/mV ([7]; pH 6): −189 mV
- E1/2 (vs. Ag/AgCl (3M KCl))/mV ([7]; pH 7): −237 mV
- E1/2 (vs. Ag/AgCl (3M KCl))/mV ([7]; pH 8): −300 mV

SMILES: CN1c2ccccc2Nc2c(O)cccc21 [reduced PYO]
- decrease in CFUs of liquid cultures [8]: two- to threefold decrease in CFUs
